# ChEMBL document CHEMBL1201862, “PubChem BioAssay data set” (2004)
#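 Dose response: 5 concentrations. Exposure: 48 h. Format: 96-well plates. Endpoint: linear interpolation; highest concentration if not reached. GI50 = concentration required for 50% inhibition of growth.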 Activity calls are given as the source filed them. No stated cut-off is given here; in the data, active = GI50 up to about 1.1 µM and inactive = higher.
# Legend:
# Test in all cases: inhibition of tumour cell growth, NCI panel, 48 h
# OVCAR-4 = test system: OVCAR-4
# HL-60 = test system: HL-60
# EKVX = test system: EKVX
# RPMI-8226 = test system: RPMI-8226
# SNB-75 = test system: SNB-75
# MOLT-4 = test system: MOLT-4
# Malme-3M = test system: Malme-3M
# NCI-H460 = test system: NCI-H460
# NCI-H226 = test system: NCI-H226
# UO-31 = test system: UO-31
# HT-29 = test system: HT-29
# NCI-H23 = test system: NCI-H23
# OVCAR-8 = test system: OVCAR-8
# LOX IMVI = test system: LOX IMVI
# HOP-92 = test system: HOP-92
# COLO 205 = test system: COLO 205
# TK-10 = test system: TK-10
# NCI-H522 = test system: NCI-H522
# CCRF-CEM = test system: CCRF-CEM
Compound,GI50 (OVCAR-4),GI50 (HL-60),GI50 (EKVX),GI50 (RPMI-8226),GI50 (SNB-75),GI50 (MOLT-4),GI50 (Malme-3M),GI50 (NCI-H460),GI50 (NCI-H226),GI50 (UO-31),GI50 (HT-29),GI50 (NCI-H23),GI50 (OVCAR-8),GI50 (LOX IMVI),GI50 (HOP-92),GI50 (COLO 205),GI50 (TK-10),GI50 (NCI-H522),GI50 (CCRF-CEM)
Cn1c(=O)nc2n(-c3cc(C(F)(F)F)cc(C(F)(F)F)c3)c3ccccc3nc-2c1=O,40.3 µM (inactive),> 100 µM (inactive),> 100 µM (inactive),> 100 µM (inactive),18.8 µM (inactive),> 100 µM (inactive),> 100 µM (inactive),> 100 µM (inactive),> 100 µM (inactive),> 100 µM (inactive),> 100 µM (inactive),> 100 µM (inactive),> 100 µM (inactive),> 100 µM (inactive),45.1 µM (inactive),> 100 µM (inactive),> 100 µM (inactive),–,–
O=C1c2c(nc3ccccc3c2-c2ccccc2)CN1Nc1ccccc1,> 100 µM (inactive),45.3 µM (inactive),> 100 µM (inactive),> 100 µM (inactive),–,> 100 µM (inactive),> 100 µM (inactive),–,> 100 µM (inactive),> 100 µM (inactive),> 100 µM (inactive),–,> 100 µM (inactive),> 100 µM (inactive),> 100 µM (inactive),> 100 µM (inactive),> 100 µM (inactive),> 100 µM (inactive),> 100 µM (inactive)
COC(=O)C1=C(c2ccc3c(c2)OCO3)OC(c2ccc3c(c2)OCO3)C1 (stereo not drawn),> 100 µM (inactive),> 100 µM (inactive),> 100 µM (inactive),> 100 µM (inactive),> 100 µM (inactive),16.9 µM (inactive),> 100 µM (inactive),> 100 µM (inactive),> 100 µM (inactive),38.2 µM (inactive),> 100 µM (inactive),> 100 µM (inactive),> 100 µM (inactive),28.3 µM (inactive),> 100 µM (inactive),66.1 µM (inactive),> 100 µM (inactive),–,> 100 µM (inactive)
COc1ccc2nc(NC(=O)C(=O)NNC(=O)c3ccncc3)sc2c1,> 100 µM (inactive),> 100 µM (inactive),> 100 µM (inactive),–,> 100 µM (inactive),–,> 100 µM (inactive),> 100 µM (inactive),> 100 µM (inactive),> 100 µM (inactive),> 100 µM (inactive),> 100 µM (inactive),> 100 µM (inactive),> 100 µM (inactive),> 100 µM (inactive),> 100 µM (inactive),> 100 µM (inactive),> 100 µM (inactive),> 100 µM (inactive)
COC12CCC(=O)C=C1c1ccccc1N2C(C)=O (stereo not drawn),> 100 µM (inactive),> 100 µM (inactive),> 100 µM (inactive),> 100 µM (inactive),> 100 µM (inactive),> 100 µM (inactive),–,> 100 µM (inactive),–,> 100 µM (inactive),> 100 µM (inactive),> 100 µM (inactive),> 100 µM (inactive),–,< 0.01 µM (active),> 100 µM (inactive),–,–,> 100 µM (inactive)
Cc1nn(C)cc1P(=S)(c1ccccc1)c1ccccc1,> 100 µM (inactive),18.6 µM (inactive),> 100 µM (inactive),28.7 µM (inactive),24.4 µM (inactive),30.3 µM (inactive),58.6 µM (inactive),40.5 µM (inactive),–,> 100 µM (inactive),50.4 µM (inactive),> 100 µM (inactive),54.3 µM (inactive),30.3 µM (inactive),35.2 µM (inactive),48.5 µM (inactive),> 100 µM (inactive),–,31.8 µM (inactive)
COc1c2c(cc3nc4ccccc4nc13)CCC(C(C)(C)O)C2 (stereo not drawn),> 100 µM (inactive),26.4 µM (inactive),> 100 µM (inactive),–,> 100 µM (inactive),32.4 µM (inactive),65.6 µM (inactive),> 100 µM (inactive),> 100 µM (inactive),83.2 µM (inactive),66.4 µM (inactive),56.8 µM (inactive),> 100 µM (inactive),> 100 µM (inactive),76.2 µM (inactive),69 µM (inactive),> 100 µM (inactive),31.8 µM (inactive),45.1 µM (inactive)
C=CCOCn1cnc2c(=O)[nH]c(N)nc21,> 100 µM (inactive),> 100 µM (inactive),> 100 µM (inactive),> 100 µM (inactive),> 100 µM (inactive),> 100 µM (inactive),> 100 µM (inactive),> 100 µM (inactive),> 100 µM (inactive),> 100 µM (inactive),–,> 100 µM (inactive),> 100 µM (inactive),> 100 µM (inactive),–,> 100 µM (inactive),> 100 µM (inactive),–,> 100 µM (inactive)
